Measurements published in patent publication US20030134859A1 (SANKYO COMPANY, LIMITED, priority 2000, published 2003).

What was measured:
[1] = test system: Mouse preadipocyte strain 3T3-L1; test: Inhibition of differentiation as an indication of acetic acid uptake; assay type: cell-based; conditions: Mus musculus, 3T3-L1, 0.1 μM test substance, control (0.01% dimethylsulfoxide) = 100%, read-out: Rate of Uptake (%) of [2-14C] acetic acid
In short: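 Confluent 3T3-L1 cells induced to differentiate for 4 days (insulin, IBMX, dexamethasone, 5% FBS) with test compound at 0.1 μM final or 0.01% DMSO, then 2 days in insulin maintenance medium, at 37 °C, 10% CO2. [2-14C]acetic acid uptake over 1 hr counted by scintillation; expressed as % of DMSO control.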

[2] = test system: human colon cancer cells COL-2-JCK; test: Inhibition of colony forming activity in human colon cancer cells; assay type: cell-based; conditions: Homo sapiens, 240 h; 1 μM test compound; 10 days; sum of colony areas vs control; read-out: Inhibition Rate (%) against the colony forming activity
In short: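 COL-2-JCK cells seeded at 300 cells/well and grown 10 days at 37 °C, 5% CO2 with compound at 1 μM final (0.1% DMSO). Colonies stained with crystal violet in formalin; inhibition % = (1 − treated/control colony area)×100.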

| SMILES | activity at 0.1 µM [1] | inhibition at 1 µM [2] |
| --- | --- | --- |
| Cc1csc(NC(=O)c2cc([N+](=O)[O-])ccc2Cl)n1 [Example 3, N-(4-Methylthiazol-2-yl)-(2-chloro-5-nitrophenyl)carboxamide] | 68.9% | 27% |
| O=C(Nc1nc2ccc(Cc3ccc(F)cc3)cc2s1)c1cc([N+](=O)[O-])ccc1Cl [Example 90, N-[6-(4-Fluorobenzyl)benzothiazol-2-yl]-(2-chloro-5-nitrophenyl)carboxamide] | 60.5% | 47% |
